According to patent publication US20060141047A1, “Methods and compositions for delivery of catecholic butanes for treatment of obesity” (priority 2003, published 2006):
Where “and” joins values, the source holds several entries; their conditions need not be identical. Identical values can stand only once. Like-named read-outs stand apart in the source and are kept apart here.

Key:
[1] = test system: HPV-16 transformed immortal mouse epithelial cells (C3); conditions: intratumor injection, separately or together, U.S. Pat. No. 6,417,234 and 6,214,874; cited from earlier work
[2] = Toxicokinetic (TK) analysis of M4N serum concentration; format: in vivo, Beagle Dogs; conditions: dogs, CET or DMSO formulations, minimal toxicity
Procedure: Blood samples from the CET group animals were collected via the jugular vein on Study Day (SD) 1, SD 3, SD 6, and SD 8 at the following time points: predose, 0.25, 0.5, 1, 2, 4, 8, and 16 hours following the completion of the approximate 4-hour infusion.
Blood samples from the DMSO group animals were collected via the cephalic vein on SD 1, SD 3, SD 6, and SD 8 at the following time points: predose, 0.25, 0.5, 1, 2, 4, 8, and 16 hours following the final injection dose of M4N-DMSO.
Blood samples collected from both groups of animals were processed for plasma and serum for TK analysis.
The plasma and serum samples were sent to MedTox Laboratories, the Sponsor's designated laboratory for TK analysis. TK analysis of M4N plasma and serum concentration-time data was performed using a validated method (M200406) by MedTox Laboratories and analyzed by noncompartmental methods to obtain estimates of toxicokinetic parameters (where data allow), but not necessarily limited to, Cmax, Tmax and AUC.

[3] = Short-term oral feeding, M4N tissue levels by HPLC; format: in vivo, mice
Procedure: (§1) Tissue Distribution and Toxicity Analysis Following Short-Term and Long-Term Oral Feeding. For short-term feeding experiments, 30 mg of M4N dissolved in 300 μL castor oil was orally administered to each of 6 mice. At 2 h, 4 h, and 8 h post-administration time points, 2 mice were sacrificed, the organs and blood were collected, and the M4N extracted and quantitated as described below. In long-term feeding experiments, mice were fed food balls consisting of M4N dissolved in corn oil and Basal Mix (Harlan Teklad; Madison, Wis.; Cat. # TD 02273) for 14 weeks. Food balls weighed 9 g and contained 242 mg M4N each. Two mice, one male and one female, were reserved for long-term drug retention studies; and fourteen mice, both male and female, were used for long-term drug toxicity studies. At the end of feeding, mice were sacrificed, the organs and blood were collected, and the M4N extracted and quantitated as described below.
M4N Extraction and HPLC Analysis Following Oral Feeding. […] The dried samples were then analyzed quantitatively by HPLC and M4N was identified by mass spectroscopy using pure M4N as a standard.
In samples from short-term fed mice, dialysis was performed to further purify M4N from the tissue extracts. […] The dialysates were dried on benchtop and in a speed-vac, then analyzed by HPLC.
HPLC Quantitation of M4N. […]

[4] = Tissue distribution of 3H-M4N after a single intraperitoneal or intravenous injection; format: in vivo, mice; conditions: 3 hours post-injection, i.p. or i.v.
Procedure: M4N Tissue Distribution Studies Using 3H—M4N. […] The insoluble pellet was then further extracted with EtOH.
A mixture of tritiated and cold M4N was dissolved in a 6% Cremaphor EL, 6% ethanol, 88% saline solvent then injected intraperitoneally (i.p.) and intravenously (i.v.) via tail vein into mice. At 3 hours post-injection, the organs and blood were harvested and weighed, and the M4N was extracted. […] M4N was successfully distributed to various organs at 3 hours post-injection by both i.p. and i.v. routes of administration. […] Corroborating this, a very similar profile of distribution was observed using an oral route of administration described below. The majority of the recovered radioactivity localized to the gastrointestinal tract organs: the stomach, small intestine, caecum, and large intestine, in the range of 3 μg to 20 μg of M4N per gram of tissue.

[5] = Maximum amount of M4N dissolved in Cremaphor EL/ethanol/saline solvent; format: physicochemical; conditions: 6% Cremaphor EL, 6% ethanol, 88% saline
Procedure: To assess the toxicity of prolonged intraperitoneal systemic treatment with M4N, and to determine a safe dosage for the following xenograft experiments, the following toxicity test was performed.

[6] = mouse, in vivo, ip
Procedure: M4N Tissue Distribution Studies Using 3H—M4N. Harlan ICR mice or C3 cell-induced tumor-bearing C57bl/6 mice were injected via tail vein or intraperitoneally with 100 μL of Cremaphor-ethanol based solvent containing 100 μCi of tritiated M4N and 60 mM of cold M4N. At the specified time post-injection, the mice were sacrificed, the organs and blood were collected, weighed, then dissolved overnight in 4 M guanidine isothiocyanate (GITC). The insoluble pellet was then further extracted with EtOH. Tritium content of both the GITC extract and the EtOH extract was measured on a Packard scintillation counter and the quantity of M4N in each organ was calculated based on the specific activity of the inoculum.
To determine the distribution of M4N in tissues over time following a single application, and also to assess the ability to deliver M4N to a distant tumor, six C3 cell-induced tumor bearing mice (A-F) were treated i.p. with ^3H— M4N as described above. At 4 hours, 6 hours, 18 hours, and 6 days post-injection, the quantities of ^3H— M4N in various tissues and the tumors were measured.

fat tissues = assay: Incubation of isolated fat tissue with CREM solvent plus M4N, fat weight; set-up: species or system mice
Procedure: (§2) While no definite conclusions can be made regarding most organs due to the small size of the populations tested, a decrease in adipocyte (fat cells) weight was nevertheless significant (0.84 g vs. 0.196 g) following a 20 week feeding with a fat-rich diet containing M4N. In particular, fat tissues from two control mice (C24 and C25) which were fed a fat-rich diet without M4N were isolated and incubated with CREM solvent or with CREM solvent plus M4N for a total period of 6 days (first extract 72 hours and second extract for an additional 72 hours). The fat cell weights were measured at 0 time, the third day and the sixth day following incubation in CREM solvent and without M4N.

[7] = dogs
Procedure: In this example the Maximal Tolerable Dose (MTD) of two different formulations of M4N [Cremaphor-Ethanol (CET) or Dimethyl Sulfoxide (DMSO)] to male and female Beagle Dogs was determined.
Dogs were treated prophylactically with an analgesic and antibiotic on the day of surgery and with antibiotics and/or analgesics following surgery (according to Gene Logic Inc. SOP Nos. 324.0.2, 325.0.1, and 326.0.2, as appropriate.) Other treatments were provided as recommended by the staff veterinarian. The catheter lines were flushed with saline during the postoperative recovery period with a frequency deemed appropriate by the Study Director.
Thus the M4N-DMSO group animals were administered with M4N-DMSO with eight intravenous injections via the non-VAP jugular vein every 30 minutes over a 4-hour period. This frequency of delivery mimicked the delivery of the test article using the infusion pump.
Animals from the CET group were observed during the entire infusion period and for at least one hour following end of infusion. The dogs in the DMSO group were observed throughout the jugular vein injection period and for at least one hour following the last (eighth) injection.

[8] = format: in vivo; conditions: for % Weight Change / Weight on End Date: M4N-fed mice
Procedure: as §1, with “In long-term feeding experiments, mice were fed food balls consisting of M4N dissolved in corn oil and Basal Mix (Harlan Teklad; Madison, Wis.; Cat. # TD 02273) for 14 weeks.” left out
In particular, weight was measured on a bi-weekly or monthly basis. […] However, to assess long-term drug toxicity, only the mice that were treated for more than 20 weeks were compared. A total of 14 mice were treated for more than 20 weeks, 6 M4N-treated and 8 control mice. Since females generally eat less than males and have lower body weight, comparisons were drawn between mice of the same sex. […] The fact that the control mice, both male and female, consumed much more food than the M4N-treated mice evidences a greater preference for food in the control subjects.

[9] = Fresh weights of isolated organs after 20 week feeding with fat-rich diet containing M4N; format: in vivo, mice
Procedure: as §2

[10] = test system: mammary carcinoma MX-1 xenograft; conditions: intratumor injection or topical application, athymic mice, U.S. Pat. No. 5,008,294; cited from earlier work

For `C[C@H](Cc1ccc(OC(=O)CN(C)C)c(OC(=O)CN(C)C)c1)[C@@H](C)Cc1ccc(OC(=O)CN(C)C)c(OC(=O)CN(C)C)c1` [G4N, meso-1,4-bis[3,4-(dimethylaminoacetoxy)phenyl]-(2R,3S)-dimethylbutane], the “Suppression of tumor growth” value [1] is given as “some evidence of suppression of tumor growth”.
With `COc1ccc(C[C@@H](C)[C@@H](C)Cc2ccc(OC)c(OC)c2)cc1OC` [M4N, meso-1,4-bis(3,4-dimethoxyphenyl)-2,3-dimethylbutane] the “Blood levels of M4N achieved” value [2] was “up to 14,000 ng/ml”, the “M4N in each tissue” value ([3]; 2 hours post-feeding, 30 mg M4N in castor oil, oral) was < 2 ng per gram tissue and the “Time of peak M4N levels” value ([3]; post-feeding, single oral 30 mg M4N) was “roughly 4 hours”. The “M4N detected in heart or blood” value [4] was “Little or no M4N”, the “M4N present in liver and fat” value [4] was “Significant quantities” and the “Maximum amount of M4N which may be dissolved in the solvent” value [5] was 20 mg/mL. For the same molecule, the “M4N in the tumor” value [6] was 294 ng M4N per gram of wet tumor, the “M4N tissue levels at 6 days post-injection relative to levels at 6 hours” value [6] was 5-10% and the “Time of peak M4N tissue levels” value [6] was “approximately 6 hours”. The “Fat Weight After First Extraction” value (fat tissues; fat tissue of mouse C25, 72 hours in CREM solvent + 21.4 mg M4N) was 0.481 g, the “Fat Weight After Second Extraction” value (fat tissues; fat tissue of mouse C25, additional 72 hours (6 days total) in CREM solvent + M4N) was 0.059 g and the “Dose safely administered by intravenous infusion over four hours” value ([7]; CET vehicle) was “up to 10 mg/kg”. For the same molecule, the “Dose safely administered by intravenous infusion over four hours” value ([7]; DMSO vehicle) was “up to 100 mg/kg”, the “Average % Weight Change” value ([8]; Female mice treated 20 weeks) was 24.9% and the “Average Amount of Food Consumed” value ([8]; Female mice treated 20 weeks) was 258.8 g. For the same molecule, the “% Weight Change” value ([8]; length of treatment 8 weeks) was 20.5% and 18.1%, the “Weight on End Date” value ([8]; length of treatment 8 weeks) was 26.4 g and 24.1 g and the “Weight on End Date” value ([8]; length of treatment 9 weeks) was 18.9 g and 24.2 g and 19.7 g. For the same molecule, the “% Weight Change” value ([8]; length of treatment 11 weeks) was 11.8%, the “Weight on End Date” value ([8]; length of treatment 11 weeks) was 20.8 g and the “Average % Weight Change” value ([8]; Male mice treated 20 weeks) was 21%. For the same molecule, the “Average Amount of Food Consumed” value ([8]; Male mice treated 20 weeks) was 225 g and 225.0 g, the Effect on appetite ([8]; both male and female mice, long-term oral feeding) was “reduced the appetite” and the “Effect on body weight” value ([8]; mice, systemic or oral administration) was “caused weight loss”. For the same molecule, the “Toxic effects on female mice” value ([8]; mouse, in vivo, po) was “did not have toxic effects”, the “Suppression of tumor growth” value [1] was “some evidence of suppression of tumor growth” and the “Fresh organ weight, Bladder” value ([9]; Female, 20 week feeding) was 0.034 g. The “Fresh organ weight, Caecum” value ([9]; Female, 20 week feeding) was 0.162 g, the “Fresh organ weight, Colon” value ([9]; Female, 20 week feeding) was 0.195 g and the “Fresh organ weight, Heart” value ([9]; Female, 20 week feeding) was 0.107 g. For the same molecule, the “Fresh organ weight, Kidney” value ([9]; Female, 20 week feeding) was 0.3 g, the “Fresh organ weight, Liver” value ([9]; Female, 20 week feeding) was 1.153 g and the “Fresh organ weight, Lung” value ([9]; Female, 20 week feeding) was 0.205 g. The “Fresh organ weight, Pancreas” value ([9]; Female, 20 week feeding) was 0.18 g, the “Fresh organ weight, Small Intestine” value ([9]; Female, 20 week feeding) was 1.193 g and the “Fresh organ weight, Spleen” value ([9]; Female, 20 week feeding) was 0.08 g. The “Fresh organ weight, Stomach” value ([9]; Female, 20 week feeding) was 0.243 g, the “Fresh weight, Fat” value ([9]; Female, 20 week feeding) was 0.509 g and the “Fresh organ weight, Bladder” value ([9]; Male, 20 week feeding) was 0.026 g. The “Fresh organ weight, Caecum” value ([9]; Male, 20 week feeding) was 0.133 g, the “Fresh organ weight, Colon” value ([9]; Male, 20 week feeding) was 0.186 g and the “Fresh organ weight, Heart” value ([9]; Male, 20 week feeding) was 0.319 g. For the same molecule, the “Fresh organ weight, Kidney” value ([9]; Male, 20 week feeding) was 0.35 g, the “Fresh organ weight, Liver” value ([9]; Male, 20 week feeding) was 1.44 g and the “Fresh organ weight, Lung” value ([9]; Male, 20 week feeding) was 0.156 g. For the same molecule, the “Fresh organ weight, Pancreas” value ([9]; Male, 20 week feeding) was 0.121 g, the “Fresh organ weight, Small Intestine” value ([9]; Male, 20 week feeding) was 1.44 g and the “Fresh organ weight, Small Vesicles” value ([9]; Male, 20 week feeding) was 0.154 g. For the same molecule, the “Fresh organ weight, Spleen” value ([9]; Male, 20 week feeding) was 0.065 g, the “Fresh organ weight, Stomach” value ([9]; Male, 20 week feeding) was 0.177 g and the “Fresh organ weight, Testes” value ([9]; Male, 20 week feeding) was 0.189 g. For the same molecule, the “Fresh weight, Fat” value ([9]; Male, 20 week feeding with fat-rich diet) was 0.196 g.
In the case of `CC(Cc1ccc(O)c(O)c1)C(C)Cc1ccc(O)c(O)c1` (stereo not drawn) [NDGA, nordihydroguaiaretic acid], the “Inhibition of tumor growth” value [10] is listed as “Some evidence of inhibition of tumor growth”.
